{
  "source": "paper PMC12801355",
  "about": "“Peptide Amphiphiles Hitchhike on Endogenous Biomolecules for Enhanced Cancer Imaging and Therapy” (Advanced Materials (Deerfield Beach, Fla.), 2025)",
  "key": {"human plasma proteins [1]": {"biological_target": "T1, human plasma proteins (Homo sapiens, UniProt O95445)", "T1 construct": "incubated with 50% pooled human plasma at 37 °C for 2 h; from tissue; host or cells: pooled human plasma (50%)", "T1 sequence (O95445 whole entry)": "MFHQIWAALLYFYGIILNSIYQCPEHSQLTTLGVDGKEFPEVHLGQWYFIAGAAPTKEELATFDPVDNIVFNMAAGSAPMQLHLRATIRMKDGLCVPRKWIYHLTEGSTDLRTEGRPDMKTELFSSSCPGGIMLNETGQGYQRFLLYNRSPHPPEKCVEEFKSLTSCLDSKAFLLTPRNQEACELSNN", "assay": "Mass spectrometry of proteins pulled down with biotinylated SA‐E (SA‐Eb) from human plasma", "format": "binding", "protocol": "(§1) Samples were prepared for mass spectrometry analysis via a pull‐down of a biotinylated version of the SA‐E probe (SA‐Eb, 100 µM) incubated with 50% pooled human plasma at 37 °C for 2 h. Before incubation with the SA‐Eb‐plasma mixture, magnetic streptavidin‐coated beads (Dynabeads MyOne Streptavidin T1, Invitrogen, 65601) were washed with PBS (10 mM, pH 7.4) then blocked with 1% casein equal to the total initial volume of beads for 15 min at room temperature. After blocking, beads were washed again with PBS. Beads were then combined with SA‐Eb‐plasma solution, 25 µL beads to 200 µL mixture. This mixture was then incubated at room temperature for 30 min. After incubation, the remaining solution was removed, and the beads were washed five times with PBS. Bound SA‐Eb was eluted from beads in 30 µL 0.5% Triton X‐100 solution. Magnetic beads were then removed, and the elution was collected for analysis. For plasma control, the incubation with SA‐Eb step was skipped, and 50% plasma in PBS was incubated with beads and washed and eluted using the same method as the SA‐Eb‐plasma solution. The elution solutions were then analyzed by the Proteomics Shared Resource facility at Oregon Health & Science University (See Supporting Information for details).\n(§2) Sample Preparation. Eluted plasma samples were dried down and stored at -80°C. Samples were thawed at room temperature for 10 min, and 75 µL of SDS protein extraction buffer (5% SDS, 50 mM […]; TEAB) was added to each sample. Samples were shaken in a Thermo mixer for 10 minutes at room temperature and centrifuged at 10,000 g for 5 min. Each sample was transferred from a 0.5 mL tube to a 1.5 mL LoBind centrifuge tube. Samples were reduced by adding 3.4 µL of 0.5 M dithiothreitol and incubated at 95 °C for 10 min. Samples were alkylated by the addition of 6.8 µL of 0.5 M iodoacetamide and were incubated at room temperature for 30 min in the dark. Samples were then acidified by the addition of 8.52 µL of 12% phosphoric acid, and 562 µL of SDS protein binding buffer (90% methanol, 100 mM TEAB, pH 7.51). Samples were transferred 165 µL at a time to S-trap micro columns (Protifi, Farmingdale, NY) and inserted into 1.5 mL of polypropylene tubes. Samples were centrifuged at 4,000 g for 3 min between each addition of the sample. S-trap columns were washed 6 times using 150 µL of 90% methanol containing 100 mM of TEAB followed by centrifugation at 4,000g for 3 min between each wash step. S-trap columns containing the bound sample proteins were transferred to 1.5 mL LoBind centrifuge tubes and 40 µL of 80 ng/µL sequencing grade modified trypsin (Pierce TM Trypsin Protease MS-Grade, XG348166) in 50 mM TEAB was added. S-trap columns were loosely capped, and digestion was performed at 37°C overnight in a humidified chamber.\n(§3) After completion of digestion, peptides were eluted by sequential addition of 40 µL of TEAB, 40 µL of 0.2% aqueous formic acid, and 40 µl of 50% acetonitrile, 0.2% formic acid, with centrifugation at 4,000 g for 4 min between each addition of elution buffer. The elution fractions were combined and then dried by vacuum centrifugation. Samples were reconstituted by adding 20 µL of 5% formic acid, shaking at 37 °C, and spinning at 15,000 g for 5 min. The supernatant of each sample was transferred to an auto-sample vial.\n(§4) Data analysis. Mass spectrometry data from all samples were processed using COMET/PAWS against Uniprot_Human_database. Comet (v. 2016.01, rev. 3)^8 was used to search MS2 Spectra against a January 2023 version of canonical FASTA protein database containing human uniprot sequences, and concatenated sequence-reversed entries to estimate error thresholds and 179 common contaminant sequences and their reversed forms. The database processing was performed using python scripts available at https://github.com/pwilmart/fasta_utilities.git and Comet results were processed using the PAW pipeline2 from https://github.com/pwilmart/PAW_pipeline.git."}, "human plasma proteins [2]": {"biological_target": "T2, human plasma proteins (Homo sapiens, UniProt P06727)", "T2 construct": "incubated with 50% pooled human plasma at 37 °C for 2 h; from tissue; host or cells: pooled human plasma (50%)", "T2 sequence (P06727 21-396)": "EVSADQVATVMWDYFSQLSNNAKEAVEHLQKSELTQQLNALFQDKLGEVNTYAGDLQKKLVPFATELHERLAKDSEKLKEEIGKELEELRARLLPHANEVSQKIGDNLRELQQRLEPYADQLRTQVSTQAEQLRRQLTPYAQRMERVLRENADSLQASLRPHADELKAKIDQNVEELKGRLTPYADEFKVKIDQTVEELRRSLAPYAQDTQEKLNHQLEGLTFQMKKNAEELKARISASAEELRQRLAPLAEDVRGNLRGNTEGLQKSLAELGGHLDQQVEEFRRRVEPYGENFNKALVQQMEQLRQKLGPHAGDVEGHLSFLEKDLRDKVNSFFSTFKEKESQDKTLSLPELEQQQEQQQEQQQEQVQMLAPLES", "assay": "Mass spectrometry of proteins pulled down with biotinylated SA‐E (SA‐Eb) from human plasma", "format": "binding", "protocol": "as §1, §2, §3, §4"}, "human plasma proteins [3]": {"biological_target": "T3, human plasma proteins (Homo sapiens, UniProt P02647)", "T3 construct": "incubated with 50% pooled human plasma at 37 °C for 2 h; from tissue; host or cells: pooled human plasma (50%)", "T3 sequence (P02647 19-267)": "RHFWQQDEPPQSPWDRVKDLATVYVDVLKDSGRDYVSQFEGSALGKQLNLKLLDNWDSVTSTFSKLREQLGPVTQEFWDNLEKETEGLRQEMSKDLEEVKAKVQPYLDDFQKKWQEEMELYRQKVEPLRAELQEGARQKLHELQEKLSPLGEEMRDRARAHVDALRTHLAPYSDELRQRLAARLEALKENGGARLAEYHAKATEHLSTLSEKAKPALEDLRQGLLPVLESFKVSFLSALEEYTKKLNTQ", "assay": "Mass spectrometry of proteins pulled down with biotinylated SA‐E (SA‐Eb) from human plasma", "format": "binding", "protocol": "as §1, §2, §3, §4"}, "[4]": {"assay": "Clearance study (urine and stool)", "format": "in vivo, mouse", "conditions": "50 nmol IV", "protocol": "Six Balb/c mice were intravenously injected with 100 µL of either ICG‐conjugated SA‐E or PBS, with three mice in each group. Urine and stool samples were collected from each mouse at different time points up to 7 days. […] Urine from healthy Balb/c mice was collected and pooled to generate a calibration curve. Fluorescence of stool samples was detected using an IVIS (PerkinElmer)."}},
  "note": "Where a SMILES comes first, the peptide text is derived from it. The star is where a group is joined. Palmitoyl = CCCCCCCCCCCCCCCC(=O)*",
  "data": [
    {"smiles": "CCCCCCCCCCCCCCCC(=O)NCC(=O)NCC(=O)NCC(=O)N[C@@H](Cc1c[nH]cn1)C(=O)N[C@@H](C)C(=O)N[C@@H](C)C(=O)N[C@@H](CC(N)=O)C(=O)NCC(=O)N[C@@H](CCC(=O)O)C(=O)N[C@@H](CCC(=O)O)C(=O)N[C@@H](CS)C(=O)N[C@@H](CCC(=O)O)C(=O)O", "note": "[SA‐E] (Palmitoyl-GGGHAANGEECE-OH)", "values": [
      {"measurement": "Percentage, Apolipoprotein M", "setting": "human plasma proteins [1]; replicate 1", "result": 0.3, "unit": "%"},
      {"measurement": "Total Counts, Apolipoprotein M", "setting": "human plasma proteins [1]; replicate 1", "result": 11},
      {"measurement": "Percentage, Apolipoprotein M", "setting": "human plasma proteins [1]; replicate 2", "result": 0.4, "unit": "%"},
      {"measurement": "Total Counts, Apolipoprotein M", "setting": "human plasma proteins [1]; replicate 2", "result": 12},
      {"measurement": "Percentage, Apolipoprotein A-IV", "setting": "human plasma proteins [2]; replicate 1", "result": 1.1, "unit": "%"},
      {"measurement": "Total Counts, Apolipoprotein A-IV", "setting": "human plasma proteins [2]; replicate 1", "result": 39},
      {"measurement": "Percentage, Apolipoprotein A-IV", "setting": "human plasma proteins [2]; replicate 2", "result": 0.6, "unit": "%"},
      {"measurement": "Total Counts, Apolipoprotein A-IV", "setting": "human plasma proteins [2]; replicate 2", "result": 16},
      {"measurement": "Percentage, Apolipoprotein A-I", "setting": "human plasma proteins [3]; replicate 1", "result": 15.7, "unit": "%"},
      {"measurement": "Total Counts, Apolipoprotein A-I", "setting": "human plasma proteins [3]; replicate 1", "result": 560},
      {"measurement": "Percentage, Apolipoprotein A-I", "setting": "human plasma proteins [3]; replicate 2", "result": 21.1, "unit": "%"},
      {"measurement": "Total Counts, Apolipoprotein A-I", "setting": "human plasma proteins [3]; replicate 2", "result": 600},
      {"measurement": "fluorescence in urine samples", "setting": "[4]; any time point up to 7 days, plate reader", "result": "No fluorescence signal was detected"},
      {"measurement": "decline of ICG signal in stool", "setting": "[4]; Balb/c mice, IVIS", "result": "mostly diminished at 2 days"},
      {"measurement": "time of peak ICG signal in stool", "setting": "[4]; Balb/c mice, IVIS, n = 3", "result": 6, "unit": "h"}
    ]}
  ]
}
